Assay results taken from patent US8648097B2, “Pyridylaminoacetic acid compound” (Ube Industries, Ltd., priority 2008, dated 2014).
Counter-ions that a name gives are not always drawn. Like-named read-outs stand apart in the source and are kept apart here.

Tests used:
[1] = system: isolated guinea pig trachea; experiment: Isolated guinea pig trachea relaxation test; details: 50% relaxation of 0.1 μM carbachol-induced contraction
Procedure: The tracheas were isolated from guinea pigs (Hartley, male, age 7 to 9 weeks, supplier: Nippon SLC) followed by cutting as rings containing cartilage. Trachea specimens were prepared by cutting the side opposite from the smooth muscle from the rings. The trachea specimens were suspended in Krebs solution containing 3 μM indomethacin while applying a load of 0.5 g, and changes in tension were measured through an FD pickup (TB-611T, Nippon Kohden). The trachea specimens were then warmed to 37° C. and perfused with a mixed gas consisting of 95% oxygen and 5% carbon dioxide. Next, after causing the trachea specimen to contract by adding 0.1 μM carbachol, a test compound dissolved in dimethylsulfoxide was cumulatively added starting at a low concentration to cause the trachea specimen to relax.

[2] = target: T1, EP2 (Homo sapiens, UniProt P43116); experiment: Measurement of EP2 agonist activity (cAMP in HEK293 cells); type: cell-based; set-up: host or cells: HEK293 cells; details: amount of cAMP in HEK293 cells (ES-562-C, Euroscreen), 30 minutes
T1 sequence (P43116 whole entry): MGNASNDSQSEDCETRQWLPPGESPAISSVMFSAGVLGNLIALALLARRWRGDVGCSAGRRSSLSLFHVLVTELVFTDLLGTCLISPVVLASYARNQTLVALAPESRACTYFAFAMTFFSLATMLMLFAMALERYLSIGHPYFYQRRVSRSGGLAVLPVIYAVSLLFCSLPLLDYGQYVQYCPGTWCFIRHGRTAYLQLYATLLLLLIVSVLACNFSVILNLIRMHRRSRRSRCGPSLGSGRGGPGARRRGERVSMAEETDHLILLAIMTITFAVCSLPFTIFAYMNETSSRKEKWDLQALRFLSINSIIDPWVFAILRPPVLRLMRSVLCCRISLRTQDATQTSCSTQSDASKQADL
Procedure: Measurement of EP2 agonist activity was carried out in compliance with the method of Wilson et al. (European Journal of Pharmacology, 501, 49 (2004)). HEK293 cells (ES-562-C, Euroscreen) were cultured in MEM medium containing 10% FBS and seeded at 2×10^4 cells per well of a 96-well plate. On the following day, the medium was replaced with serum-free MEM medium containing 3-isobutyl-1-methylxanthine (final concentration: 500 μM) and after culturing for 30 minutes, a test compound dissolved in dimethylsulfoxide was added followed by allowing to stand undisturbed in a carbon dioxide incubator. After 30 minutes, the amount of cAMP in the cells was measured with a cAMP Biotrak EIA System kit (GE Healthcare Sciences).

[3] = target: T1, EP2; experiment: Measurement of EP2 receptor binding action; set-up: expressed in transfected cells; host or cells: HEK293 cells (membrane fraction)
Procedure: Measurement of EP2 receptor binding action was carried out in compliance with the method of Abramovitz et al. (Biochimica et Biophysica Acta, 1483, 285 (2000)). […] The membrane fraction was recovered on glass fiber filter paper (GF/B, Whatmann) using a cell harvester (M30R, Brandel), and after washing with buffer solution (10 mM MES-KOH (pH 6.0), 10 mM MgCl2), radioactivity was measured with a liquid scintillation analyzer (2000CA, Packard). […] The dissociation constant (Kd) was calculated by Scatchard analysis. Furthermore, a Compound A shown in the table is a sodium salt of {3-[(4-tert-butylbenzyl)(pyridin-3-ylsulfonyl)aminomethyl]-phenoxy}acetic acid (CP-533,536), which is the compound of Example 14e of WO 99/19300A, and is a control compound having EP2 receptor binding action.

[4] = read-out: Ki Value of EP2 Receptor Binding Action

Row | SMILES | EC50 [2] | Ki [3, 4] | also measured
1 | O=C(O)CNc1cccc(CN(Cc2ccc(-c3ccccc3)cc2)S(=O)(=O)c2ccccn2)n1 [Example 17, {6-[(Biphenyl-4-ylmethyl)(pyridin-2-ylsulfonyl)aminomethyl]pyridin-2-ylamino}acetic acid hydrochloride] | 1.8 nM | 1.5 nM | IC50 ([1]; Cavia porcellus): 2.6 nM
2 | O=C(O)CNc1cccc(CN(Cc2ccc(-c3ncccn3)cc2)S(=O)(=O)c2ccccn2)n1 [Example 18, (6-{(Pyridin-2-ylsulfonyl)[4-(pyrimidin-2-yl)benzyl]aminomethyl}pyridin-2-ylamino)-acetic acid hydrochloride] | 5 nM | 9.2 nM | 
3 | O=C(O)CNc1cccc(CN(Cc2ccc(-c3ccc(F)cc3)cc2)S(=O)(=O)c2cccnc2)n1 [Example 9, {6-[(4′-Fluorobiphenyl-4-ylmethyl)(pyridin-3-ylsulfonyl)aminomethyl]pyridin-2-ylamino}acetic acid hydrochloride] |  | 4.4 nM | 
4 | O=C(O)CNc1cccc(CN(Cc2cc3ccc(Cl)cc3s2)S(=O)(=O)c2cccnc2)n1 [Example 12, {6-[(6-Chlorobenzo[b]thiophen-2-ylmethyl)(pyridin-3-ylsulfonyl)aminomethyl]pyridin-2-ylamino}acetic acid hydrochloride] | 0.49 nM | 1.1 nM | 
5 | O=C(O)CNc1cccc(CN(Cc2cc3ccccc3o2)S(=O)(=O)c2cccnc2)n1 [Example 8, {6-[(Benzofuran-2-ylmethyl)(pyridin-3-ylsulfonyl)aminomethyl]pyridin-2-ylamino}-acetic acid hydrochloride] | 5.6 nM |  | 
6 | O=C(O)CNc1cccc(CN(Cc2ccc(-c3cscn3)cc2)S(=O)(=O)c2ccccn2)n1 [Example 16, (6-{(Pyridin-2-ylsulfonyl)[4-(thiazol-4-yl)benzyl]aminomethyl}pyridin-2-ylamino)-acetic acid] | 0.62 nM | 3.1 nM | IC50 ([1]; Cavia porcellus): 2.6 nM
7 | O=C(O)CNc1cccc(CN(Cc2ccc(-n3cccn3)cc2)S(=O)(=O)c2ccc(F)cc2)n1 [Example 26, (6-{(4-Fluorobenzenesulfonyl)[4-(pyrazol-1-yl)benzyl]aminomethyl}pyridin-2-ylamino)acetic acid] | 0.78 nM |  | 
8 | O=C(O)CNc1cccc(CN(Cc2ccc(-c3nc(C(F)(F)F)cs3)cc2)S(=O)(=O)c2ccccn2)n1 [Example 25, (6-{(Pyridin-2-ylsulfonyl)[4-(4-trifluoromethylthiazol-2-yl)benzyl]aminomethyl}-pyridin-2-ylamino)acetic acid] | 7.9 nM |  | 
9 | O=C(O)CNc1cccc(CN(Cc2ccc(-c3nccs3)cc2)S(=O)(=O)c2cccnc2)n1 [Example 11, (6-{(Pyridin-3-ylsulfonyl) [4-(thiazol-2-yl)benzyl]aminomethyl}pyridin-2-ylamino)-acetic acid trifluoroacetate] | 0.42 nM | 3.8 nM | 
10 | CC(C)(C)c1ccc(CN(Cc2cccc(OCC(=O)O)c2)S(=O)(=O)c2cccnc2)cc1 [Compound A, {3-[(4-tert-butylbenzyl)(pyridin-3-ylsulfonyl)aminomethyl]-phenoxy}acetic acid, reference compound] |  |  | IC50 ([1]; Cavia porcellus): 86 nM
11 | O=C(O)CNc1cccc(CN(Cc2cc3ccccc3s2)S(=O)(=O)c2cccnc2)n1 [Example 13, {6-[(Benzo[b]thiophen-2-ylmethyl)(pyridin-3-ylsulfonyl)aminomethyl]pyridin-2-ylamino}acetic acid hydrochloride] | 3.4 nM | 13 nM | 
12 | O=C(O)CNc1cccc(CN(Cc2ccc(-c3nccs3)cc2)S(=O)(=O)c2ccccn2)n1 [Example 3, (6-{(Pyridin-2-ylsulfonyl)[4-(thiazol-2-yl)benzyl]aminomethyl}pyridin-2-ylamino)-acetic acid] | 0.45 nM | 1.9 nM | 
13 | O=C(O)CNc1cccc(CN(Cc2ccc(-n3cccn3)cc2)S(=O)(=O)c2ccccn2)n1 [Example 21, (6-{[4-(Pyrazol-1-yl)benzyl](pyridin-2-ylsulfonyl)aminomethyl}pyridin-2-ylamino)-acetic acid] | 1.1 nM |  | 
14 | O=C(O)CNc1cccc(CN(Cc2ccc(C3=NCCS3)cc2)S(=O)(=O)c2ccc(F)cc2)n1 [Example 5, (6-{[4-(4,5-Dihydrothiazol-2-yl)benzyl](4-fluorobenzenesulfonyl)aminomethyl}-pyridin-2-ylamino)acetic acid] | 1.8 nM | 7 nM | 
15 | O=C(O)CNc1cccc(CN(Cc2ccc(-n3cccn3)cc2)S(=O)(=O)c2cccnc2)n1 [Example 7, (6-{[4-(Pyrazol-1-yl)benzyl](pyridin-3-ylsulfonyl)aminomethyl}pyridin-2-ylamino)-acetic acid hydrochloride] | 2.8 nM |  | 
16 | O=C(O)CNc1cccc(CN(Cc2ccc(-c3ccccn3)cc2)S(=O)(=O)c2cccnc2)n1 [Example 19, (6-{[4-(Pyridin-2-yl)benzyl](pyridin-3-ylsulfonyl)aminomethyl}pyridin-2-ylamino)-acetic acid] | 2 nM |  | 
17 | COc1ccc2cc(CN(Cc3cccc(NCC(=O)O)n3)S(=O)(=O)c3cccnc3)sc2c1 [Example 15, {6-[(6-Methoxybenzo[b]thiophen-2-ylmethyl)(pyridin-3-ylsulfonyl)aminomethyl]-pyridin-2-ylamino}acetic acid hydrochloride] | 0.96 nM | 9.4 nM | IC50 ([1]; Cavia porcellus): 2.6 nM
18 | O=C(O)CNc1cccc(CN(Cc2ccc(-c3ccccc3)cc2)S(=O)(=O)c2cccnc2)n1 [Example 6, {6-[(Biphenyl-4-ylmethyl)(pyridin-3-ylsulfonyl)aminomethyl]pyridin-2-ylamino}acetic acid hydrochloride] | 2 nM |  | Ki [3]: 3.8 nM
19 | O=C(O)CNc1cccc(CN(Cc2ccc(-c3nccs3)cc2)S(=O)(=O)c2cccnc2)n1 [Example 2, (6-{(Pyridin-3-ylsulfonyl)[4-(thiazol-2-yl)benzyl]aminomethyl}pyridin-2-ylamino)-acetic acid] |  |  | IC50 ([1]; Cavia porcellus): 5.7 nM
20 | O=C(O)CNc1cccc(CN(Cc2ccc(-c3nccs3)cc2)S(=O)(=O)c2ccc(F)cc2)n1 [Example 4, (6-{(4-Fluorobenzenesulfonyl)[4-(thiazol-2-yl)benzyl]aminomethyl}pyridin-2-ylamino)acetic acid] | 0.29 nM |  | IC50 [1]: 4.5 nM; Ki ([3]; [3H]prostaglandin E2 10 nM, membrane fraction of HEK293 cells expressing human EP2 receptor, read-out: Ki Value of EP2 Receptor Binding Action): 2.8 nM
